Measured values published in ChEMBL document CHEMBL1137407, “Identification and optimization of anthranilic sulfonamides as novel, selective cholecystokinin-2 receptor antagonists” (J Med Chem, 2006).

Experiments:
[1] = Stability in rat liver microsome after 30 mins; assay type: ADME; conditions: liver microsomes, read-out: Stability
[2] = target: T1, Cholecystokinin receptor type A (Homo sapiens, UniProt P32238)
T1 sequence (P32238 whole entry): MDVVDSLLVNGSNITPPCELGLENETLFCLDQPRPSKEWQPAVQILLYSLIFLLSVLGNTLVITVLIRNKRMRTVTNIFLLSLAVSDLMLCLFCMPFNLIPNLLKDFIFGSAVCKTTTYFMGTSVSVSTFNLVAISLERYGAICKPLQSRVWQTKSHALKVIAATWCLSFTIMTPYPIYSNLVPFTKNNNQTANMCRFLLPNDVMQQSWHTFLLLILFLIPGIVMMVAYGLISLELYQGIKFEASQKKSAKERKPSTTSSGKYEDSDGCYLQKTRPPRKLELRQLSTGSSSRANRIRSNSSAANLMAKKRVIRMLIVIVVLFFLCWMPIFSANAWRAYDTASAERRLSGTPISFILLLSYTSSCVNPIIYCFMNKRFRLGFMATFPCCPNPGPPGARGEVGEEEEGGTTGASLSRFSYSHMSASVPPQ
Description: Displacement of [125I]CCK-8S from human CCK1R

[3] = Stability in human liver microsome after 30 mins; assay type: ADME; conditions: liver microsomes, read-out: Stability
[4] = Clearance in Sprague-Dawley rat at 2 umol/kg, iv; assay type: ADME, organism-based; conditions: in vivo
[5] = Half life in Sprague-Dawley rat at 2 umol/kg, iv; assay type: ADME, organism-based; conditions: in vivo
[6] = target: T2, Gastrin/cholecystokinin type B receptor (Homo sapiens, UniProt P32239)
T2 sequence (P32239 whole entry): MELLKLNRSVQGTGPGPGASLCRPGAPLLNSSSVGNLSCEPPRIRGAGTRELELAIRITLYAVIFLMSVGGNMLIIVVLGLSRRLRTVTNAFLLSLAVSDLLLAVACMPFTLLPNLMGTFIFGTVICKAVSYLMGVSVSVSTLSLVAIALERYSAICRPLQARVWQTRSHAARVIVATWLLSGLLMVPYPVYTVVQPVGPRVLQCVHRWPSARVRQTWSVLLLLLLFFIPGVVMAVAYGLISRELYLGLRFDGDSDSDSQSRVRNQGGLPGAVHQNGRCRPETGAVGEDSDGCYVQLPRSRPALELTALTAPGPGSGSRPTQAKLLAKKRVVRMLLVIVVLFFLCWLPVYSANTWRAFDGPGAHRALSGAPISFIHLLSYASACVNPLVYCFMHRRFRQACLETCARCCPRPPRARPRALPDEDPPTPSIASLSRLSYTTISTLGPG
Description: Displacement of [125I]CCK-8S from human CCK2R

[7] = Oral bioavailability in Sprague-Dawley rat at 2 umol/kg, po; assay type: ADME, organism-based; conditions: in vivo
[8] = Dissociation constant, pKa of the compound; assay type: physicochemical
[9] = Oral bioavailability in Beagle dog at 20 umol/kg, po; assay type: ADME, organism-based, Canis lupus familiaris; conditions: in vivo
[10] = Clearance in Beagle dog at 2 umol/kg, iv; assay type: ADME, organism-based, Canis lupus familiaris; conditions: in vivo
[11] = Half life in Beagle dog at 2 umol/kg, iv; assay type: ADME, organism-based, Canis lupus familiaris; conditions: in vivo
Rattus norvegicus [12] = assay: Inhibition of pentagastrin-stimulated gastric acid secretion in po dosed conscious gastric fistula Sprague-Dawley rat; assay type: functional; conditions: Stomach
[13] = Stability in human liver S9 fraction after 15 mins; assay type: ADME; conditions: read-out: Stability
[14] = Stability in dog liver S9 fraction after 30 mins; assay type: ADME, Canis lupus familiaris; conditions: read-out: Stability
Caco-2 [15] = assay: Apparent permeability from apical to basolateral side of Caco-2 cells; assay type: ADME, cell-based; conditions: human
[16] = Stability in rat liver S9 fraction after 15 mins; assay type: ADME; conditions: read-out: Stability
Cavia porcellus = species on record: Cavia porcellus; assay: Antagonizing effect on penta gastrin-stimulated guinea pig gastric smooth muscle contraction by Schild analysis; assay type: functional, Muscle tissue
[17] = Partition coefficient, log D at pH 7.4; assay type: physicochemical; conditions: octanol/water
[18] = Stability in human liver microsome after 15 mins; assay type: ADME; conditions: liver microsomes, read-out: Stability
[19] = target: T3, Cholecystokinin receptor type A (Cavia porcellus) (UniProt Q63931); assay: Antagonizing effect on CCK-8S-stimulated guinea pig gall bladder smooth muscle contraction by Schild analysis; assay type: functional, tissue-based; conditions: Muscle tissue
T3 sequence (whole entry): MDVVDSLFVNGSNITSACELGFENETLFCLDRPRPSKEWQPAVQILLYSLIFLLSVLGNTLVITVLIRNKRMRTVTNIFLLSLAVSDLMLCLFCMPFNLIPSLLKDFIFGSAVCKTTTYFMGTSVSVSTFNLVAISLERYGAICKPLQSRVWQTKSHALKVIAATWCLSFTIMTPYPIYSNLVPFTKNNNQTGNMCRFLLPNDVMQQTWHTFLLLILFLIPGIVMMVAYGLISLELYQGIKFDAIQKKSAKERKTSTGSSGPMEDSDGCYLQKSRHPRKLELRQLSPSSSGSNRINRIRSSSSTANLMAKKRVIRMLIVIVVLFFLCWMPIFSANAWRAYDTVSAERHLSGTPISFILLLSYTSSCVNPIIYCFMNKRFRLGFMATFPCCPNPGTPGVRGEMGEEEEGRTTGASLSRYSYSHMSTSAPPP

[20] = Stability in human liver S9 fraction after 30 mins; assay type: ADME; conditions: read-out: Stability
[21] = Stability in rat liver S9 fraction after 30 mins; assay type: ADME; conditions: read-out: Stability
[22] = Stability in dog liver S9 fraction after 15 mins; assay type: ADME, Canis lupus familiaris; conditions: read-out: Stability
[23] = Binding to alpha-glycoprotein; assay type: ADME; conditions: human, read-out: PPB (converted)
Caco-2 [24] = assay: Apparent permeability from basolateral to apical side of Caco-2 cells; assay type: ADME, cell-based; conditions: human
Rattus norvegicus [25] = assay: Inhibition of pentagastrin-stimulated gastric acid secretion in iv dosed anesthetized rat measured as increase in pH; assay type: functional, Stomach
Rattus norvegicus [26] = species on record: Rattus norvegicus; assay: Plasma concentration in rat; assay type: ADME, organism-based; conditions: in vivo

Compound: O=C(c1cc(Cl)c(Cl)cc1NS(=O)(=O)c1cccc2nsnc12)N1CCCCC1
- remaining at 0.5 h [1]: 8%
- Ki ([2]; read-out: Ki): > 10 µM
- remaining at 0.5 h [3]: 8%

Compound: CC1CCCCN1C(=O)c1ccc(Cl)cc1NS(=O)(=O)c1cccc2nsnc12 (stereo unspecified)
- remaining at 0.5 h [1]: 3%
- Ki ([2]; read-out: Ki): > 10 µM
- remaining at 0.5 h [3]: 14%

Compound: O=C(c1cc(Cl)ccc1NS(=O)(=O)c1cccc2nsnc12)N1CCCCC1
- remaining at 0.5 h [1]: 9%
- clearance [4]: 7 mL/min/kg
- half-life [5]: 21 min
- Ki ([2]; read-out: Log Ki (converted)): > 10 µM
- Ki ([6]; read-out: Log Ki (converted)): 0.398 µM
- remaining at 0.5 h [3]: 16%

Compound: O=C(c1ccc(Br)cc1NS(=O)(=O)c1cccc2nccnc12)N1CCCCC1
- remaining at 0.5 h [1]: 8%
- clearance [4]: 13.8 mL/min/kg
- half-life [5]: 20.4 min
- bioavailability [7]: 50%
- Ki ([2]; read-out: Ki): > 10 µM
- Ki ([6]; read-out: Log Ki (converted)): 0.0631 µM
- remaining at 0.5 h [3]: 21%

Compound: O=C(c1ccc(Cl)cc1NS(=O)(=O)c1cccc2nonc12)N1CCCCC1
- Ki ([2]; read-out: Ki): > 10 µM
- Ki ([6]; read-out: Log Ki (converted)): 1.58 µM
- pKa [8]: 6.18

Compound: O=C(c1ccc(Cl)cc1NS(=O)(=O)c1cccc2nsnc12)N1CCCCCC1
- remaining at 0.5 h [1]: 2%
- Ki ([2]; read-out: Ki): > 10 µM
- Ki ([6]; read-out: Log Ki (converted)): 0.0631 µM
- remaining at 0.5 h [3]: 11%

Compound: O=C(c1ccc(I)cc1NS(=O)(=O)c1cccc2nccnc12)N1CCOCC1
- remaining at 0.5 h [1]: 46%
- clearance [4]: 6 mL/min/kg
- bioavailability [9]: 51%
- half-life [5]: 37.2 min
- clearance [10]: 1.62 mL/min/kg
- half-life [11]: 90 min
- ED50 (Rattus norvegicus [12]): 0.57 mg/kg
- bioavailability [7]: 55%
- Ki ([2]; read-out: Ki): > 10 µM
- remaining at 0.5 h [3]: 60%

Compound: O=C(c1ccc(Cl)cc1NS(=O)(=O)c1cccc2nsnc12)N1CCCCC1
- remaining at 0.25 h [13]: 69%
- remaining at 0.5 h [14]: 59%
- clearance [4]: 20.8 mL/min/kg
- Papp (Caco-2 [15]): 22.7 ×10⁻⁶ cm/s
- remaining at 0.25 h [16]: 78%
- pKb (Cavia porcellus): 8.49
- logD [17]: 2.1
- remaining at 0.25 h [18]: 19%
- Kb [19]: > 10 µM
- pKb [19]: < 5
- half-life [5]: 9.6 min
- bioavailability [7]: 42%
- remaining at 0.5 h [20]: 51%
- Ki ([2]; read-out: Ki): > 10 µM
- remaining at 0.5 h [21]: 62%
- Ki ([6]; read-out: Log Ki (converted)): 0.0398 µM
- remaining at 0.25 h [22]: 78%
- fraction unbound [23]: 0.23
- remaining at 0.5 h [3]: 3.9%
- pKa [8]: 5.47
- Papp (Caco-2 [24]): 1.8 ×10⁻⁶ cm/s

Compound: O=C(c1ccc(Br)cc1NS(=O)(=O)c1cccc2nsnc12)N1CCCCC1
- ED50 (Rattus norvegicus [25]): 0.6 mg/kg/h
- remaining at 0.5 h [1]: 8%
- clearance [4]: 11.7 mL/min/kg
- pKb (Cavia porcellus): 8.8
- bioavailability [9]: 33%
- Kb [19]: > 10 µM
- pKb [19]: < 5
- half-life [5]: 15.6 min
- clearance [10]: 11.7 mL/min/kg
- half-life [11]: 25.2 min
- bioavailability [7]: 68%
- Ki ([2]; read-out: Ki): > 10 µM
- remaining at 0.5 h [3]: 15%
- concentration (Rattus norvegicus [26]): 1300 nM

Compound: C[C@H]1COC[C@H](C)N1C(=O)c1ccc(Cl)cc1NS(=O)(=O)c1cccc2nccnc12
- Ki ([2]; read-out: Ki): > 10 µM
- Ki ([6]; read-out: Log Ki (converted)): 5.01 µM

Compound: O=C(c1ccc(Br)cc1NS(=O)(=O)c1cccc2ncccc12)N1CCCCC1
- Ki ([2]; read-out: Ki): > 10 µM
- Ki ([6]; read-out: Log Ki (converted)): 0.794 µM

Compound: O=C(c1ccc(-c2ccccc2)cc1NS(=O)(=O)c1cccc2nsnc12)N1CCCCC1
- Ki ([2]; read-out: Ki): > 10 µM
- Ki ([6]; read-out: Log Ki (converted)): 0.158 µM

Compound: O=C(c1ccc(Cl)cc1NS(=O)(=O)c1cccc2nsnc12)N1CCC(c2ccccc2)CC1
- Ki ([2]; read-out: Ki): > 10 µM
- Ki ([6]; read-out: Log Ki (converted)): 0.0631 µM

Compound: CC1CN(C(=O)c2ccc(Cl)cc2NS(=O)(=O)c2cccc3nsnc23)CCN1 (stereo unspecified)
- Ki ([2]; read-out: Ki): > 10 µM
- Ki ([6]; read-out: Ki): > 10 µM

Compound: CN(Cc1ccccc1)C(=O)c1ccc(Cl)cc1NS(=O)(=O)c1cccc2nsnc12
- Ki ([2]; read-out: Ki): > 10 µM
- Ki ([6]; read-out: Log Ki (converted)): 0.0316 µM
- remaining at 0.5 h [3]: 2.2%

Compound: Cc1ccc(S(=O)(=O)Nc2cc(Br)ccc2C(=O)N2CCCCC2)c2nsnc12
- Ki ([2]; read-out: Ki): > 10 µM
- Ki ([6]; read-out: Log Ki (converted)): 0.1 µM
